System: NF-κB activation pathway
Assay: Real-time PCR (TaqMan/SYBR Green) of target gene mRNA in LPS-stimulated THP-1 cells with NF-κB pathway inhibitors
Assay type: cell-based, human
Conditions: BMS-345541 10 μM, dexamethasone 100 nM; for MGC20791 expression (mRNA): all time points examined, FIG. 5D; for BCL-6 expression (mRNA): FIG. 5C
Protocol: Poly (A)^+ mRNA was isolated from THP-1 cells that were either unstimulated, or stimulated with 100 ng/ml LPS for two hours in the presence and absence of BMS-205820 (2 uM) using the Fast Track isolation kit (Invitrogen, Carlsbad, Calif.) according to manufacturer's instructions. RNA quality and quantity were evaluated using UV spectrometry and capillary electrophoresis with the RNA 6000 Assay 10 (Agilent). First-strand cDNA was synthesized using the SuperScript™ First-Strand Synthesis System for RT-PCR (Invitrogen) according to manufacturer's instructions.
PCR reactions were performed in a total volume of 40 ul containing master mix (SYBR Green I dye, 50 mM Tris-Cl pH 8.3, 75 mM KCl, DMSO, Rox reference dye, 5 mM MgCl2, 2 mM dNTP, 1 unit Platinum Taq High Fidelity enzyme), 0.5 uM 15 each of forward and reverse gene-specific primers, and cDNA (8 ul of a 1:36 dilution of the first strand reaction mix). For tissue expression analyses, PCR reactions included 2 ul of cDNA derived from the Human Multiple Tissue cDNA panel I and Human Immune System MTC Panel (Clontech, Palo Alto, Calif.). The amplification program consisted of a 10 minute incubation at 95° C., followed by 40 cycles of incubations at 95° C. for 15 seconds, 60° C. for 1 minute. The amplification was followed by melting curve analysis at 60° C. to determine the specificity of the amplification reaction. The data were analyzed using the TaqMan 5700 software with the threshold value set to 0.5. The message levels of GAPDH were used to normalize the amounts of cDNA for each reaction.
PolyA+ mRNA was isolated from THP1 cells that were either unstimulated, stimulated with LPS for 2 hours, or stimulated with LPS for 2 hours in the presence of the peptide BMS-205820 (2 μM). In some experiments, THP-1 cells were stimulated with LPS in the presence of the glucocorticoid dexamethasone (100 nM), and the IKK-2 inhibitor, BMS-345541 (10 μM). RNA quality and quantity were evaluated using UV spectrometry and capillary electrophoresis with the RNA 6000 Assay by Agilent. Five-hundred nanograms of polyA RNA was used for first-strand cDNA synthesis using the SuperScript™ First-Strand Synthesis System for RT-PCR (Life Technologies) following the manufacturer's instructions with 250 ng of random hexamers.
PCR Reactions were performed in a total volume of 40 μl. The master mix contained SYBR Green I Dye, 50 mM Tris-HCl pH8.3, 75 mM KCl, DMSO, Rox reference dye, 5 mM MgCl2, 2 mM dNTP, Platinum Taq High Fidelity (1U/reaction), and 0.5 μM of each primer. The cDNA was diluted 1:36 from the synthesis reaction and eight microliters was used in each PCR reaction. For tissue distribution analyses, two microliters of cDNA from the Human Multiple Tissue and Human Immune System MTC cDNA panels were used as templates. The amplification program consisted of a 10 minute incubation at 95° C. followed by forty cycles of incubations at 95° C. for 15 seconds and 60° C. for 1 minute. […] A negative control without cDNA template was run to assess the overall specificity.
A relative value for the initial target concentration in each reaction was determined using the TaqMan 5700 software. The threshold value was set to 0.5 to obtain cycle threshold values that were used to assign relative message levels for each target. The message levels of GAPDH were determined for each cDNA sample and were used to normalize all other genes tested from the same cDNA sample.

[1] = THP-1 cells stimulated with LPS

| Compound | MGC20791 expression (mRNA) [1] | Cytokine-Inducible Kinase (CNK) expression (mRNA) (THP-1 cells stimulated with LPS, all time points, FIG. 5A) | BCL-2 Like 11 expression (mRNA) (THP-1 cells stimulated with LPS, each time point, FIG. 5B) | BCL-6 expression (mRNA) [1] | Stat1 expression (mRNA) (THP-1 cells, 8 hours post LPS stimulation, FIG. 5E) |
| --- | --- | --- | --- | --- | --- |
| Cc1ccc2nc(NCCN)c3ncc(C)n3c2c1 [BMS-345541] | significantly inhibited | potently inhibited | significantly inhibited expression at each time point below that detected in resting cells | significantly inhibited | significantly inhibited |
| C[C@@H]1C[C@H]2[C@@H]3CCC4=CC(=O)C=C[C@]4(C)[C@@]3(F)[C@@H](O)C[C@]2(C)[C@@]1(O)C(=O)CO [dexamethasone] | failed to inhibit | – | – | failed to inhibit | – |

From patent US20040171823A1, “Polynucleotides and polypeptides associated with the NF-kappaB pathway” (priority 2003, published 2004)
